Results as given in patent publication US10723692B2, “Lipids and lipid nanoparticle formulations for delivery of nucleic acids” (Acuitas Therapeutics, Inc., priority 2014, dated 2020).
Read-outs that look alike come from different tables or passages of the source.

Legend:
[1] = test system: luciferase expression in the liver; experiment: In vivo luciferase mRNA expression rodent model (LNP, liver luciferase); design: species or system C57BL/6 mice; conditions: tail vein, liver 4 hours; for Liver Luc @ 0.3 mg/kg (ng luc/g liver): 0.3 mg mRNA/kg; for Liver Luc @ 1.0 mg/kg (ng luc/g liver): 1.0 mg mRNA/kg
Description: Cationic lipid (MC3), DSPC, cholesterol and PEG-lipid were solubilized in ethanol at a molar ratio of 50:10:38.5:1.5. Lipid nanoparticles (LNP) were prepared at a total lipid to mRNA weight ratio of approximately 10:1 to 30:1. Briefly, the mRNA was diluted to 0.2 mg/mL in 10 to 50 mM citrate buffer, pH 4. Syringe pumps were used to mix the ethanolic lipid solution with the mRNA aqueous solution at a ratio of about 1:5 to 1:3 (vol/vol) with total flow rates above 15 ml/min. The ethanol was then removed and the external buffer replaced with PBS by dialysis. Finally, the lipid nanoparticles were filtered through a 0.2 μm pore sterile filter. Lipid nanoparticle particle size was 70-90 nm diameter as determined by quasi-elastic light scattering using a Nicomp 370 submicron particle sizer (Santa Barbara, Calif.).
Studies were performed in 6-8 week old female C57BL/6 mice (Charles River) according to guidelines established by an institutional animal care committee (ACC) and the Canadian Council on Animal Care (CCAC). Varying doses of mRNA-lipid nanoparticle were systemically administered by tail vein injection and animals euthanized at specific time points (1, 2, 4, 8 and 24 hrs) post-administration. Liver and spleen were collected in pre-weighted tubes, weights determined, immediately snap frozen in liquid nitrogen and stored at −80° C. until processing for analysis.
For liver, approximately 50 mg was dissected for analyses in a 2 mL FastPrep tubes (MP Biomedicals, Solon Ohio). ¼″ ceramic sphere (MP Biomedicals) was added to each tube and 500 μL of Glo Lysis Buffer—GLB (Promega, Madison Wis.) equilibrated to room temperature was added to liver tissue. Liver tissues were homogenized with the FastPrep24 instrument (MP Biomedicals) at 2×6.0 m/s for 15 seconds. Homogenate was incubated at room temperature for 5 minutes prior to a 1:4 dilution in GLB and assessed using SteadyGlo Luciferase assay system (Promega). Specifically, 50 μL of diluted tissue homogenate was reacted with 50 μL of SteadyGlo substrate, shaken for 10 seconds followed by 5 minute incubation and then quantitated using a CentroXS^3 LB 960 luminometer (Berthold Technologies, Germany). The amount of protein assayed was determined by using the BCA protein assay kit (Pierce, Rockford Ill.). Relative luminescence units (RLU) were then normalized to total ug protein assayed. To convert RLU to ng luciferase a standard curve was generated with QuantiLum Recombinant Luciferase (Promega). Based in the data provided in FIG. 1, the four-hour time point was chosen for efficacy evaluation of the lipid formulations (see EXAMPLE 48).
The FLuc mRNA (L-6107) from Trilink Biotechnologies will express a luciferase protein, originally isolated from the firefly, Photinus pyralis. FLuc is commonly used in mammalian cell culture to measure both gene expression and cell viability. It emits bioluminescence in the presence of the substrate, luciferin. This capped and polyadenylated mRNA is fully substituted with 5-methylcytidine and pseudouridine.
The cationic lipids shown in Table 2 have previously been tested with nucleic acids. For comparative purposes, these lipids were also used to formulate lipid nanoparticles containing the FLuc mRNA (L-6107) using an in line mixing method, as described in EXAMPLE 47 and in PCT/US10/22614, which is hereby incorporated by reference in its entirety. Lipid nanoparticles were formulated using the following molar ratio: 50% Cationic lipid/10% distearoylphosphatidylcholine (DSPC)/38.5% Cholesterol/1.5% PEG lipid (“PEG-DMG”, i.e., (1-(monomethoxy-polyethyleneglycol)-2,3-dimyristoylglycerol, with an average PEG molecular weight of 2000). Relative activity was determined by measuring luciferase expression in the liver 4 hours following administration via tail vein injection as described in EXAMPLE 47. The activity was compared at a dose of 0.3 and 1.0 mg mRNA/kg and expressed as ng luciferase/g liver measured 4 hours after administration, as described in EXAMPLE 47. […]

[2] = pKa of formulated cationic lipids in lipid nanoparticles (TNS fluorescence assay); assay type: physicochemical; conditions: read-out: pKa
Description: As described elsewhere, the pKa of formulated cationic lipids is correlated with the effectiveness of LNPs for delivery of nucleic acids (see Jayaraman et al, Angewandte Chemie, International Edition (2012), 51(34), 8529-8533; Semple et al, Nature Biotechnology 28, 172-176 (2010)). The preferred range of pKa is ˜5 to ˜7. […] Lipid nanoparticles comprising of cationic lipid/DSPC/cholesterol/PEG-lipid (50/10/38.5/1.5 mol %) in PBS at a concentration of 0.4 mM total lipid are prepared using the in-line process as described in EXAMPLE 47. TNS was prepared as a 100 μM stock solution in distilled water. Vesicles were diluted to 24 μM lipid in 2 mL of buffered solutions containing, 10 mM HEPES, 10 mM MES, 10 mM ammonium acetate, 130 mM NaCl, where the pH ranged from 2.5 to 11. An aliquot of the TNS solution was added to give a final concentration of 1 μM and following vortex mixing fluorescence intensity was measured at room temperature in a SLM Aminco Series 2 Luminescence Spectrophotometer using excitation and emission wavelengths of 321 nm and 445 nm. A sigmoidal best fit analysis was applied to the fluorescence data and the pKa was measured as the pH giving rise to half-maximal fluorescence intensity (see FIG. 2).

[3] = Table 6, LNP with 1.5% PEG-lipid (42-6)
[4] = Table 3, LNP with 1.5% PEG-DMA (42-6), FLuc mRNA
[5] = Table 3, in LNP cationic lipid/DSPC/cholesterol/PEG-lipid 50/10/38.5/1.5 mol %

| pKa ([2]; Table 5, in LNP) | pKa ([2]; Table 6, in LNP) | pKa [2, 5] | SMILES | Liver Luc @ 0.3 mg/kg (ng luc/g liver) [1, 3] [ng luc/g liver] | Liver Luc @ 1.0 mg/kg (ng luc/g liver) [1, 3] [ng luc/g liver] | Liver Luc @ 0.3 mg/kg (ng luc/g liver) [1, 4] [ng luc/g liver] | Liver Luc @ 1.0 mg/kg (ng luc/g liver) [1, 4] [ng luc/g liver] |
| --- | --- | --- | --- | --- | --- | --- | --- |
| – | – | 6.43 | CCCCC(CC)C(=O)OCCCCCCCCCCCCN(CCCCCCCCCCCCOC(=O)C(CC)CCCC)CCN(C)C (stereo not drawn) [Compound 4] | – | – | 53 ± 10 | 126 ± 102 |
| – | – | 6.36 | CCCCCC(CCCC)OC(=O)CCCCCCCCCN(CCCCCCCCCC(=O)OC(CCCC)CCCCC)CCN(C)C (stereo not drawn) [Compound 11] | – | – | 328 ± 12 | 1266 ± 522 |
| – | – | 6.51 | CCCCCCCCOC(=O)CCCCCCCCCN(CCCCCCCCCC(=O)OCCCCCCCC)CCN(C)C [Compound 13] | – | – | 16 ± 4 | 20 ± 20 |
| – | – | 6.3 | CCCCCCCCCCCOC(=O)CCCCCCCCCN(CCCCCCCCCC(=O)OCCCCCCCCCCC)CCN(C)C [Compound 15] | – | – | 66 ± 32 | 243 ± 71 |
| – | – | 6.63 | CCCCCCCCCCCOC(=O)CCCCCCCN(CCCCCCCC(=O)OCCCCCCCCCCC)CCN(C)C [Compound 16] | – | – | 7 ± 1 | 14 ± 4 |
| – | – | 6.44 | CCCCCCC(CCCC)COC(=O)CCCCCCCN(CCCCCCCC(=O)OCC(CCCC)CCCCCC)CCN(C)C (stereo not drawn) [Compound 20] | – | – | 301 ± 155 | 501 ± 96 |
| – | – | 6.28 | CCCCCCC(CCCC)COC(=O)CCCCCCCCCN(CCCCCCCCCC(=O)OCC(CCCC)CCCCCC)CCN(C)C (stereo not drawn) [Compound 21] | – | – | 404 ± 103 | 4149 ± 2514 |
| – | – | 6.53 | CCCCCCCCC(CCCCCC)COC(=O)CCCCCN(CCCCCC(=O)OCC(CCCCCC)CCCCCCCC)CCN(C)C (stereo not drawn) [Compound 22] | – | – | 2126 ± 294 | 14486 ± 6607 |
| – | – | 6.28 | CCCCCCCCCCC(C)OC(=O)CCCCCCCCCN(CCCCCCCCCC(=O)OC(C)CCCCCCCCCC)CCN(C)C (stereo not drawn) [Compound 24] | – | – | 1094 ± 180 | 6928 ± 1015 |

Further lines, the compound ahead of its results:

| SMILES | pKa ([2]; Table 5, in LNP) | pKa ([2]; Table 6, in LNP) | pKa [2, 5] | Liver Luc @ 0.3 mg/kg (ng luc/g liver) [1, 3] [ng luc/g liver] | Liver Luc @ 1.0 mg/kg (ng luc/g liver) [1, 3] [ng luc/g liver] | Liver Luc @ 0.3 mg/kg (ng luc/g liver) [1, 4] [ng luc/g liver] | Liver Luc @ 1.0 mg/kg (ng luc/g liver) [1, 4] [ng luc/g liver] |
| --- | --- | --- | --- | --- | --- | --- | --- |
| CCCCC/C=C\C/C=C\CCCCCCCCN(CCCCCCCC/C=C\C/C=C\CCCCC)CCN(C)C [A, reference compound] | 6.26 | – | – | 77 ± 40 | 203 ± 122 | – | – |
| CCCCC/C=C\C/C=C\CCCCCCCCN(CCCCCCCC/C=C\C/C=C\CCCCC)CCCN(C)C [B, reference compound] | – | 6.68 | – | 3 ± 0.8 | 12 ± 4 | – | – |
| CCCCC/C=C\C/C=C\CCCCCCCCN(CCCCCCCC/C=C\C/C=C\CCCCC)CCCCN(C)C [C, reference compound] | – | 7.32 | – | 2 ± 0.5 | 7 ± 2 | – | – |
| C/C(=C\COC(=O)CCCCCN(CCCCCC(=O)OC/C=C(\C)CCCC(C)CCCC(C)CCCC(C)C)CCN(C)C)CCCC(C)CCCC(C)CCCC(C)C (stereo not drawn) [Compound 2] | – | – | 5.64 | – | – | 23 ± 6 | 84 ± 24 |
| C/C(=C\COC(=O)CN(CCN(C)C)CC(=O)OC/C=C(\C)CCCC(C)CCCC(C)CCCC(C)C)CCCC(C)CCCC(C)CCCC(C)C (stereo not drawn) [Compound 3] | – | – | 7.15 | – | – | 1.5 ± 0.6 | 0.32 ± 0.1 |
| CCCCCCCC/C=C/COC(=O)CCCCCCCN(CCCCCCCC(=O)OC/C=C/CCCCCCCC)CCN(C)C [Compound 19] | – | – | 6.72 | – | – | 8 ± 3 | 15 ± 21 |
| CCCCCCCCC(CCCCCC)COC(=O)CCCCCCCN(CCCCCCCC(=O)OCC(CCCCCC)CCCCCCCC)CCN(C)C (stereo not drawn) [Compound 23] | – | – | 6.24 | – | – | 1109 ± 209 | 4568 ± 762 |
| CCCCCCCCC(CCCCCC)COC(=O)CCCCCCCCCN(CCCCCCCCCC(=O)OCC(CCCCCC)CCCCCCCC)CCN(C)C (stereo not drawn) [Compound 25] | – | – | 6.2 | – | – | 901 ± 173 | 6223 ± 1714 |
| CCCCC/C=C\C/C=C\CCCCCCCCOC(=O)CCCCCN(CCCCCC(=O)OCCCCCCCC/C=C\C/C=C\CCCCC)CCN(C)C [Compound 26] | – | – | 6.89 | – | – | 30 ± 5 | 55 ± 0.8 |
| CCCCCCCCCCC(CCCCCCCC)COC(=O)CCCCCN(CCCCCC(=O)OCC(CCCCCCCC)CCCCCCCCCC)CCN(C)C (stereo not drawn) [Compound 27] | – | – | 6.3 | – | – | 724 ± 144 | 6636 ± 1230 |
| CCCCCCCCCCC(CCCCCCCC)COC(=O)CCCCCCCN(CCCCCCCC(=O)OCC(CCCCCCCC)CCCCCCCCCC)CCN(C)C (stereo not drawn) [Compound 28] | – | – | 6.2 | – | – | 522 ± 86 | 4582 ± 1291 |
| CCCCCCC(CCCCCC)OC(=O)CCCCCCCCCN(CCCCCCCCCC(=O)OC(CCCCCC)CCCCCC)CCN(C)C [Compound 29] | – | – | 6.22 | – | – | 1303 ± 445 | 9750 ± 3519 |
| CCCCCCCCCCC(CCCCCCCC)COC(=O)CCCCCN(CCCCCC(=O)OCC(CCCCCCCC)CCCCCCCCCC)CCN1CCCC1 (stereo not drawn) [Compound 31] | – | – | 6.33 | – | – | 344 ± 160 | 4103 ± 1073 |
| CCCCCCCCC(CCCCCC)COC(=O)CCCCCN(CCCCCC(=O)OCC(CCCCCC)CCCCCCCC)CCN1CCCC1 (stereo not drawn) [Compound 32] | – | – | 6.47 | – | – | 626 ± 299 | 12266 ± 192 |
